Consider 7 molecules from patent publication US3960877A, “N-monosubstituted-2,3-pyridinedicarboxamides, and related compounds” (priority 1974, dated 1976).

Type in all cases: in vivo
The subject of assay [1] is undesirable plants of both the monocotyledonous and the dicotyledonous species. As to the kind of experiment: Herbicidal activity, general. As to conditions: for herbicidal activity: 16 pounds per acre. From the text: All of the 3-substituted compounds of the pyrido [3,2-d]pyrimidine-2,4(1H,3H)-dione and lumazine families made from intermediate amides produced by the method of this invention have an unexpectedly high order of herbicidal activity.
In using the compound, seeds of the types of plants set forth in Table II were sown in fresh soil. In the preemergence test the soil was sprayed with a solution of the test compound immediately after the seeds were planted, and before any noticeable growth developed. The solution was about a 2 percent by weight solution of the compound in acetone and/or alcohol. The compound was applied at the rate of 16 pounds per acre of soil surface.
Approximately 3 weeks after spray application, the herbicidal activity of the compound was determined by visual observation of the treated area in comparison with untreated control areas. These observations are reported below in Table II wherein the average activity rating is reported as the percent control of plant growth.
In the postemergence test the soil and developing plants were sprayed approximately 2 weeks after the seeds were sown. The compound was applied at the rate of 8 pounds per acre from about a 2 percent by weight solution of the test compound in acetone and/or alcohol. The postemergence herbicidal activity was measured in the same way as the preemergence activity; i.e. visual observation approximately 11 days after spraying, and expressed as the percent control of plant growth.

In assay [2] the test system is Wild Oats. The assay can be described thus: Postemergence herbicidal activity, % control of plant growth. The settings on record: Avena fatua, post-emergence, 264 h, 8 lb/acre, about 11 days. Put shortly:
(§1)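 Around two weeks after seeds went in, the compound was sprayed at 8 pounds per acre over soil and developing plants. Results are visual estimates of percent growth control made approximately 11 days after spraying.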

Assay [3] deals with Lambsquarters. The assay is described as above. As to conditions: Chenopodium album, post-emergence, 264 h, 8 lb/acre, about 11 days. Put shortly: as §1
Assay [4] relates to Chickweed. The description is as above. As to conditions: post-emergence, 264 h, 8 lb/acre, about 11 days. Put shortly: as §1
Assay [5] relates to Foxtail. The assay is described as above. As to conditions: Setaria, post-emergence, 264 h, 8 lb/acre, about 11 days. Put shortly:
as §1

In assay [6] the test system is Pigweed. The description is as above. The settings on record: Amaranthus retroflexus, post-emergence, 264 h, 8 lb/acre, about 11 days. Put shortly:
as §1

The test system of assay [7] is Barnyard Grass. The assay is described as above. As to conditions: Echinochloa crus-galli, post-emergence, 264 h, 8 lb/acre, about 11 days. Put shortly: as §1
The test system of assay [8] is Johnsongrass. Described as above. As to conditions: Sorghum halepense, post-emergence, 264 h, 8 lb/acre, about 11 days. Put shortly: as §1
For assay [9], the system named is Cucumber. The assay is described as above. The settings on record: Cucumis sativus, post-emergence, 264 h, 8 lb/acre, about 11 days. Put shortly: as §1
Assay [10] deals with Corn. The description is as above. The settings on record: Zea mays, post-emergence, 264 h, 8 lb/acre, about 11 days. Put shortly:
as §1

For assay [11], the system named is Yellow Rocket. The description is as above. The settings on record: post-emergence, 264 h, 8 lb/acre, about 11 days. Put shortly: as §1
For assay [12], the system named is Curled Dock. The description is as above. The settings on record: post-emergence, 264 h, 8 lb/acre, about 11 days. Put shortly:
as §1

The test system of assay [13] is Nutgrass. Described as above. The settings on record: post-emergence, 264 h, 8 lb/acre, about 11 days. Put shortly: as §1
For assay [14], the system named is Cheatgrass. The description is as above. As to conditions: Bromus tectorum, post-emergence, 264 h, 8 lb/acre, about 11 days. Put shortly: as §1
Assay [15] has as its system Snapbeans. The assay is described as above. The settings on record: post-emergence, 264 h, 8 lb/acre, about 11 days. Put shortly: as §1
Assay [16] has as its system Velvetleaf. The description is as above. The settings on record: Abutilon theophrasti, post-emergence, 264 h, 8 lb/acre, about 11 days. Put shortly: as §1
The test system of assay [17] is Alfalfa. Described as above. As to conditions: Medicago sativa, post-emergence, 264 h, 8 lb/acre, about 11 days. Put shortly:
as §1

The subject of assay [18] is Crabgrass. The description is as above. The settings on record: Digitaria sanguinalis, post-emergence, 264 h, 8 lb/acre, about 11 days. Put shortly: as §1
The test system of assay [19] is Wild Oats. The assay can be described thus: Preemergence herbicidal activity, % control of plant growth. As to conditions: Avena fatua, pre-emergence, 504 h, 16 lb/acre, about 3 weeks. Put shortly:
(§2)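 A roughly 2% w/w solution in acetone and/or alcohol is sprayed at 16 lb/acre onto soil directly after seeds are sown, prior to emergence. Around three weeks on, activity is rated visually against untreated areas and given as average percent control.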

The subject of assay [20] is Lambsquarters. The description is as above. The settings on record: Chenopodium album, pre-emergence, 504 h, 16 lb/acre, about 3 weeks. Put shortly:
as §2

For assay [21], the system named is Chickweed. The description is as above. As to conditions: pre-emergence, 504 h, 16 lb/acre, about 3 weeks. Put shortly: as §2
In assay [22] the test system is Foxtail. The description is as above. The settings on record: Setaria, pre-emergence, 504 h, 16 lb/acre, about 3 weeks. Put shortly:
as §2

Assay [23] concerns Pigweed. The assay is described as above. As to conditions: Amaranthus retroflexus, pre-emergence, 504 h, 16 lb/acre, about 3 weeks. Put shortly:
as §2

Assay [24] has as its system Barnyard Grass. The assay is described as above. As to conditions: Echinochloa crus-galli, pre-emergence, 504 h; barnyard grass; 16 lb/acre; about 3 weeks. Put shortly:
as §2

For assay [25], the system named is Johnsongrass. The assay is described as above. The settings on record: Sorghum halepense, pre-emergence, 504 h, 16 lb/acre, about 3 weeks. Put shortly:
as §2

In assay [26] the test system is Cucumber. The assay is described as above. As to conditions: Cucumis sativus, pre-emergence, 504 h, 16 lb/acre, about 3 weeks. Put shortly:
as §2

Assay [27] relates to Corn. The assay is described as above. As to conditions: Zea mays, pre-emergence, 504 h, 16 lb/acre, about 3 weeks. Put shortly:
as §2

For assay [28], the system named is Yellow Rocket. The description is as above. As to conditions: pre-emergence, 504 h, 16 lb/acre, about 3 weeks. Put shortly:
as §2

The subject of assay [29] is Curled Dock. The assay is described as above. The settings on record: pre-emergence, 504 h, 16 lb/acre, about 3 weeks. Put shortly: as §2
For assay [30], the system named is Nutgrass. Described as above. As to conditions: pre-emergence, 504 h, 16 lb/acre, about 3 weeks. Put shortly: as §2
For assay [31], the system named is Cheatgrass. The description is as above. As to conditions: Bromus tectorum, pre-emergence, 504 h, 16 lb/acre, about 3 weeks. Put shortly: as §2
In assay [32] the test system is Snapbeans. The assay is described as above. The settings on record: pre-emergence, 504 h, 16 lb/acre, about 3 weeks. Put shortly: as §2
Assay [33] relates to Velvetleaf. Described as above. As to conditions: Abutilon theophrasti, pre-emergence, 504 h, 16 lb/acre, about 3 weeks. Put shortly:
as §2

The subject of assay [34] is Alfalfa. Described as above. The settings on record: Medicago sativa, pre-emergence, 504 h, 16 lb/acre, about 3 weeks. Put shortly:
as §2

Assay [35] concerns Crabgrass. The assay is described as above. The settings on record: Digitaria sanguinalis, pre-emergence, 504 h, 16 lb/acre, about 3 weeks. Put shortly:
as §2

Consider `O=c1[nH]c2ncccc2c(=O)n1C1CCCCC1` [3-cyclohexyl-pyrido[2,3-d]pyrimidine-2,4-(1H,3H)-dione], for which, in assay [1], the “herbicidal activity” value is reported as “no appreciable herbicidal activity”.

As to `O=c1[nH]c2cccnc2c(=O)n1C1CCCCC1` [3-cyclohexyl-pyrido[3,2-d] pyrimidine-2,4(1H,3H)-dione], the pest or weed control at 8966.8 g/ha in the assay with Wild Oats [2], in the assay on Lambsquarters [3], in the assay on Chickweed [4], in the assay on Foxtail [5], in the assay on Pigweed [6] and in the assay on Barnyard Grass [7] was 100% each time. The pest or weed control at 8966.8 g/ha was 100% in the assay with Johnsongrass [8]; 100% in the assay with Cucumber [9]; 100% in the assay with Yellow Rocket [11]; 100% in the assay on Curled Dock [12]; 100% in the assay with Nutgrass [13]; 80% in the assay on Cheatgrass [14]. Moreover, the pest or weed control at 8966.8 g/ha in the assay on Snapbeans [15] was found to be 80%; with Velvetleaf [16], 100%; in the assay with Alfalfa [17], 30%; with Crabgrass [18], 100%. The same molecule came in with a plant injury at 8966.8 g/ha in the assay on Corn [10] of 40%. The pest or weed control at 17933.6 g/ha with Wild Oats [19], with Lambsquarters [20], in the assay with Chickweed [21], in the assay with Foxtail [22], in the assay on Pigweed [23] and in the assay with Barnyard Grass [24] was 100% throughout. For the same molecule, the pest or weed control at 17933.6 g/ha with Johnsongrass [25], in the assay on Cucumber [26], with Yellow Rocket [28], in the assay with Curled Dock [29], in the assay on Nutgrass [30] and with Cheatgrass [31] was 100% throughout. Moreover, the pest or weed control at 17933.6 g/ha in the assay with Snapbeans [32], in the assay on Velvetleaf [33], with Alfalfa [34] and with Crabgrass [35] was 100% throughout. Moreover, in the assay with Corn [27], the plant injury at 17933.6 g/ha is 90%. Also, in assay [1] (relative to 3-isopropyl-pyrido[3,2-d]pyrimidine-2,4(1H,3H)-dione, preemergence or postemergence), the “effective application rate” value is given as “substantially the same application rates, e.g., as similar or salt solutions in water, are effective”.

Regarding `CC(C)n1c(=O)[nH]c2ncccc2c1=O` [3-isopropyl-pyrido[2,3-d]pyrimidine-2,4(1H,3H)-dione], in [1], the “herbicidal activity” value is recorded as “no appreciable herbicidal activity”. The “order of herbicidal activity” value in assay [1] (in vivo) was “no appreciable activity”.

Regarding `CC(C)n1c(=O)[nH]c2cnccc2c1=O` [3-isopropyl-pyrido[3,4-d]pyrimidine-2,4(1H,3H)-dione], the “herbicidal activity” value in assay [1] is recorded as “no appreciable herbicidal activity”.

Regarding `CC(C)n1c(=O)[nH]c2ccncc2c1=O` [3-isopropyl-pyrido[4,3-d]pyrimidine-2,4(1H,3H)-dione], the “herbicidal activity” value in [1] was “no appreciable herbicidal activity”.

As for `O=c1[nH]c2ncccc2c(=O)n1-c1ccccc1` [3-phenyl-pyrido[2,3-d]pyrimidine-2,4(1H,3H)-dione], the “herbicidal activity” value in assay [1] was “no appreciable herbicidal activity”.

Consider `O=c1[nH]c(=O)c2ncccc2[nH]1` [pyrido[3,2-d]pyrimidine-2,4(1H,3H)-dione, reference compound], for which the pest or weed control at 8966.8 g/ha in the assay on Wild Oats [2], with Lambsquarters [3], in the assay with Chickweed [4], with Foxtail [5], in the assay with Pigweed [6] and in the assay with Barnyard Grass [7] was 0% each time. Besides, the pest or weed control at 8966.8 g/ha with Johnsongrass [8], in the assay with Cucumber [9], with Yellow Rocket [11], in the assay with Curled Dock [12], in the assay on Nutgrass [13] and in the assay with Cheatgrass [14] was 0% throughout. For the same molecule, the pest or weed control at 8966.8 g/ha in the assay on Snapbeans [15], in the assay on Velvetleaf [16], in the assay with Alfalfa [17] and with Crabgrass [18] was 0% throughout. Besides, the plant injury at 8966.8 g/ha in the assay with Corn [10] came to 0%. Besides, the pest or weed control at 17933.6 g/ha in the assay on Wild Oats [19], in the assay with Lambsquarters [20], in the assay with Chickweed [21], in the assay on Foxtail [22], with Pigweed [23] and with Barnyard Grass [24] was 0% in each case. Also, the pest or weed control at 17933.6 g/ha in the assay with Johnsongrass [25], in the assay on Cucumber [26], in the assay on Yellow Rocket [28], with Curled Dock [29], in the assay with Nutgrass [30] and in the assay on Cheatgrass [31] was 0% each time. Moreover, the pest or weed control at 17933.6 g/ha in the assay on Snapbeans [32], in the assay on Velvetleaf [33], with Alfalfa [34] and in the assay on Crabgrass [35] was 0% throughout. This molecule returned a plant injury at 17933.6 g/ha with Corn [27] of 0%.

Usually pest or weed control stands for how far the test organism was held down. A higher pest or weed control goes with strong suppression. As usually defined, the plant injury is how far the test organism was held down. Low values mean weak suppression, high ones strong suppression.
